Results: patent US12528790B2, “Amide derivative having antiviral activity” (Shionogi & Co., Ltd., priority 2020, dated 2026)
Like-named read-outs stand apart in the source and are kept apart here.

Test system: RSV A2 strain
Experiment: In vitro CPE (CytoPathic Effect) inhibition effect evaluation test, RSV type A
Type: cell-based
Details: inhibitory effect against RSV type A (RSV A2 strain), HEp-2 cells, CPE inhibition, read-out: EC50
Summary of the method: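 HEp-2 cells (2.4×10^5 cells/mL, 2% FBS E-MEM) were infected with RSV alongside 3-fold compound dilutions and incubated at 37 °C, 4 days for A2 and 5 days for B Wash/18537. Viable cells quantified by CellTiter-Glo 2.0 luminescence; EC50 by nonlinear regression as 50% CPE inhibition.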

[1] = human respiratory syncytial virus

| EC50 [nM] | EC50 [1] [nM] | SMILES |
| --- | --- | --- |
| < 10 | – | N#Cc1cccc(-n2cc(-c3ccc(C(=O)NC4(C(=O)O)C5CC6CC(C5)CC4C6)c(C(F)(F)F)n3)c3ccc(OC4CCN(c5ncccn5)CC4)cc32)c1 (stereo not shown) [Compound I-336] |
| < 10 | – | O=C(NC1(C(=O)O)C2CC3CC(C2)CC1C3)c1cnc(N2CC3(CCOCC3)c3cc(C4=CCCN(c5ncccn5)C4)ccc32)nc1C(F)(F)F (stereo not shown) [Compound I-349] |
| 10 to 100 | – | Cn1cc2c(n1)CCN(Cc1ccc3c(c1)C1(CCOCC1)CN3c1ncc(C(=O)NC3(C(=O)O)C4CC5CC(C4)CC3C5)c(C(F)(F)F)n1)C2 (stereo not shown) [Compound I-351] |
| 10 to 100 | – | O=C(NC1(C(=O)O)C2CC3CC(C2)CC1C3)c1cnc(N2CC3(CCOCC3)c3cc(CN4CCC5(CC4)COC5)ccc32)nc1C(F)(F)F (stereo not shown) [Compound I-352] |
| < 10 | – | O=C(NC1(C(=O)O)C2CC3CC(C2)CC1C3)c1cnc(N2CC3(CCOCC3)c3cc(CN4CCN(c5ncccn5)CC4)ccc32)nc1C(F)(F)F (stereo not shown) [Compound I-360] |
| < 10 | – | O=C(NC1(C(=O)O)C2CC3CC(C2)CC1C3)c1cnc(N2CC3(CCS(=O)(=O)CC3)c3cc(OC4CCN(c5ncc(F)cn5)CC4)ccc32)nc1C(F)(F)F (stereo not shown) [Compound I-365] |
| – | < 10 | Cn1ccc(CCOc2ccc3c(-c4ncc(C(=O)NC5(C(=O)O)C6CC7CC(C6)CC5C7)c(C(F)(F)F)n4)cn(C4CCC(F)(F)CC4)c3c2)n1 (stereo not shown) [Compound I-366] |
| – | < 10 | O=C(NC1(C(=O)O)C2CC3CC(C2)CC1C3)c1cnc(-c2cn(C3CCC(F)(F)CC3)c3cc(OC4CCN(c5ncccn5)CC4F)ccc23)nc1C(F)(F)F (stereo not shown) [Compound I-371] |
| – | < 10 | O=C(NC1(C(=O)O)C2CC3CC(C2)CC1C3)c1cnc(-c2cn(C3CCC(F)(F)CC3)c3cc(O[C@@H]4CCN(CC(F)(F)F)C4)ccc23)nc1C(F)(F)F (stereo partly shown) [Compound I-374] |
| – | < 10 | O=C(NC1(C(=O)O)C2CC3CC(C2)CC1C3)c1cnc(-c2cn(C3CCC(F)(F)CC3)c3cc(O[C@H]4CCN(CC(F)(F)F)C4)ccc23)nc1C(F)(F)F (stereo partly shown) [Compound I-375] |
| – | < 10 | COC1CC(n2cc(-c3ncc(C(=O)NC4(C(=O)O)C5CC6CC(C5)CC4C6)c(C(F)(F)F)n3)c3ccc(OC4CCN(c5ncc(F)cn5)CC4)cc32)C1 (stereo not shown) [Compound I-378] |
| – | < 10 | O=C(NC1(C(=O)O)C2CC3CC(C2)CC1C3)c1cnc(N2CC3(CCOCC3)c3cc(OCC(F)(F)F)ccc32)nc1C(F)(F)F (stereo not shown) [Compound I-381] |
| – | < 10 | O=C(NC1(C(=O)O)C2CC3CC(C2)CC1C3)c1ccc(-c2cn(-c3ccc(F)cc3)c3cc(OC4CCN(c5ncccn5)CC4)ccc23)nc1C(F)(F)F (stereo not shown) [Compound I-389] |
| – | < 10 | O=C(NC1(C(=O)O)C2CC3CC(C2)CC1C3)c1ccc(-c2cn(-c3cccc(F)c3)c3cc(OC4CCN(c5ncccn5)CC4)ccc23)nc1C(F)(F)F (stereo not shown) [Compound I-390] |
| – | < 10 | CC1CN(CC(F)(F)F)CCC1Oc1ccc2c(-c3ncc(C(=O)NC4(C(=O)O)C5CC6CC(C5)CC4C6)c(C(F)(F)F)n3)cn(C3CCC(F)(F)CC3)c2c1 (stereo not shown) [Compound I-403] |
| – | < 10 | O=C(NC1(C(=O)O)C2CC3CC(C2)CC1C3)c1cnc(-c2cn(C3CCC(F)(F)CC3)c3cc(OC4CCN(CC(F)(F)C(F)F)CC4)ccc23)nc1C(F)(F)F (stereo not shown) [Compound I-409] |
| – | < 10 | O=C(NC1(C(=O)O)C2CC3CC(C2)CC1C3)c1cnc(-c2cn(C3CCC(F)(F)CC3)c3cc(CN4CCC(N5CC(F)(F)C5)CC4)ccc23)nc1C(F)(F)F (stereo not shown) [Compound I-417] |
| – | < 10 | O=C(NC1(C(=O)O)C2CC3CC(C2)CC1C3)c1cnc(-c2cn(C3CCC(F)(F)CC3)c3cc(OC4CCN(c5ncc(F)s5)CC4)ccc23)nc1C(F)(F)F (stereo not shown) [Compound I-420] |
| – | < 10 | O=C(NC1(C(=O)O)C2CC3CC(C2)CC1C3)c1cnc(-c2cn(C3CCC(F)(F)CC3)c3cc(OC4CCN(CC5(F)CC5)CC4)ccc23)nc1C(F)(F)F (stereo not shown) [Compound I-425] |
| – | < 10 | O=C(NC1(C(=O)O)C2CC3CC(C2)CC1C3)c1cnc(-c2cn(C3CCC(F)(F)CC3)c3cc(OCCN4CC(F)(F)C4)ccc23)nc1C(F)(F)F (stereo not shown) [Compound I-426] |
| – | < 10 | O=C(NC1(C(=O)O)C2CC3CC(C2)CC1C3)c1cnc(-c2cn(C3CCC(F)(F)CC3)c3cc(OC4CCC(C(F)(F)F)CC4)ccc23)nc1C(F)(F)F (stereo not shown) [Compound I-428] |
| – | < 10 | O=C(NC1(C(=O)O)C2CC3CC(C2)CC1C3)c1cnc(-c2cn(C3CCC(F)(F)CC3)c3cc(OC4CCN(c5ncc(F)cc5F)CC4)ccc23)nc1C(F)(F)F (stereo not shown) [Compound I-432] |
| – | < 10 | O=C(NC1(C(=O)O)C2CC3CC(C2)CC1C3)c1cnc(-c2cn(C3CCC(F)(F)CC3)c3cc(C(=O)N4CCN(c5ncc(F)cn5)CC4)ccc23)nc1C(F)(F)F (stereo not shown) [Compound I-433] |
| – | < 10 | O=C(NC1(C(=O)O)C2CC3CC(C2)CC1C3)c1cnc(N2CC3(CCOCC3)c3cc(Nc4ccc(C(F)(F)F)cn4)ccc32)nc1C(F)(F)F (stereo not shown) [Compound I-436] |

The remaining lines, values behind:

| SMILES | EC50 [nM] | EC50 [1] [nM] |
| --- | --- | --- |
| Cn1ccc(-n2cc(-c3ccc(C(=O)NC4(C(=O)O)C5CC6CC(C5)CC4C6)c(C(F)(F)F)n3)c3ccc(OC4CCN(c5ncccn5)CC4)cc32)c1 (stereo not shown) [Compound I-334] | < 10 | – |
| N#Cc1ccc(-n2cc(-c3ccc(C(=O)NC4(C(=O)O)C5CC6CC(C5)CC4C6)c(C(F)(F)F)n3)c3ccc(OC4CCN(c5ncccn5)CC4)cc32)cc1 (stereo not shown) [Compound I-337] | < 10 | – |
| N#Cc1cccnc1-n1cc(-c2ccc(C(=O)NC3(C(=O)O)C4CC5CC(C4)CC3C5)c(C(F)(F)F)n2)c2ccc(OC3CCN(c4ncccn4)CC3)cc21 (stereo not shown) [Compound I-338] | < 10 | – |
| N#Cc1cccc(-n2cc(-c3ccc(C(=O)NC4(C(=O)O)C5CC6CC(C5)CC4C6)c(C(F)(F)F)n3)c3ccc(OC4CCN(c5ncccn5)CC4)cc32)n1 (stereo not shown) [Compound I-339] | < 10 | – |
| N#Cc1ccc(-n2cc(-c3ccc(C(=O)NC4(C(=O)O)C5CC6CC(C5)CC4C6)c(C(F)(F)F)n3)c3ccc(OC4CCN(c5ncccn5)CC4)cc32)nc1 (stereo not shown) [Compound I-340] | < 10 | – |
| O=C(NC1(C(=O)O)C2CC3CC(C2)CC1C3)c1cnc(N2CC3(CCOCC3)c3cc(NS(=O)(=O)c4ccccc4)ccc32)nc1C(F)(F)F (stereo not shown) [Compound I-342] | 100 to 5000 | – |
| CN(C(=O)c1ccccc1)c1ccc2c(c1)C1(CCOCC1)CN2c1ncc(C(=O)NC2(C(=O)O)C3CC4CC(C3)CC2C4)c(C(F)(F)F)n1 (stereo not shown) [Compound I-343] | 10 to 100 | – |
| CN(c1ccc2c(c1)C1(CCOCC1)CN2c1ncc(C(=O)NC2(C(=O)O)C3CC4CC(C3)CC2C4)c(C(F)(F)F)n1)S(=O)(=O)c1ccccc1 (stereo not shown) [Compound I-344] | 10 to 100 | – |
| O=C(NC1(C(=O)O)C2CC3CC(C2)CC1C3)c1cnc(N2CC3(CCOCC3)c3cc(Br)ccc32)nc1C(F)(F)F (stereo not shown) [Compound I-347] | < 10 | – |
| O=C(NC1(C(=O)O)C2CC3CC(C2)CC1C3)c1cnc(N2CC3(CCOCC3)c3cc(Oc4ccccc4)ccc32)nc1C(F)(F)F (stereo not shown) [Compound I-348] | < 10 | – |
| O=C(NC1(C(=O)O)C2CC3CC(C2)CC1C3)c1ccc(-c2cn(C3=CCC(F)(F)CC3)c3cc(OC4CCN(c5ncc(F)cn5)CC4)ccc23)nc1C(F)(F)F (stereo not shown) [Compound I-359] | < 10 | – |
| O=C(NC1(C(=O)O)C2CC3CC(C2)CC1C3)c1cnc(-c2cn(C3CCC(F)(F)CC3)c3cc(OC4CCC5(CC4)CN(c4ncccn4)C5)ccc23)nc1C(F)(F)F (stereo not shown) [Compound I-369] | – | < 10 |
| O=C(NC1(C(=O)O)C2CC3CC(C2)CC1C3)c1cnc(-c2cn(C3CCC(F)(F)CC3)c3cc(OCCNc4ncccn4)ccc23)nc1C(F)(F)F (stereo not shown) [Compound I-372] | – | < 10 |
| CC1CN(c2ncc(F)cn2)CCC1Oc1ccc2c(-c3ncc(C(=O)NC4(C(=O)O)C5CC6CC(C5)CC4C6)c(C(F)(F)F)n3)cn(C3CCC(F)(F)CC3)c2c1 (stereo not shown) [Compound I-376] | – | < 10 |
| O=C(NC1(C(=O)O)C2CC3CC(C2)CC1C3)c1cnc(-c2cn(C3CCC(F)(F)CC3)c3cc(O[C@H]4CCN(c5ncc(F)cn5)C4)ccc23)nc1C(F)(F)F (stereo partly shown) [Compound I-377] | – | < 10 |
| O=C(NC1(C(=O)O)C2CC3CC(C2)CC1C3)c1cnc(N2CC3(CCCCC3)c3cc(OC4CCN(c5ncc(F)cn5)CC4)ccc32)nc1C(F)(F)F (stereo not shown) [Compound I-383] | – | < 10 |
| O=C(NC1(C(=O)O)C2CC3CC(C2)CC1C3)c1cnc(-c2cn(C3CCC(F)(F)CC3)c3cc(OC4CN(c5ncc(F)cn5)C4)ccc23)nc1C(F)(F)F (stereo not shown) [Compound I-387] | – | < 10 |
| O=C(NC1(C(=O)O)C2CC3CC(C2)CC1C3)c1cnc(-c2cn(C3CCC(F)(F)CC3)c3cc(OC4CN(CC(F)(F)F)C4)ccc23)nc1C(F)(F)F (stereo not shown) [Compound I-388] | – | < 10 |
| O=C(NC1(C(=O)O)C2CC3CC(C2)CC1C3)c1cnc(N2CC3(CCCCC3)c3cc(OC4CCN(c5ncccn5)CC4)c(F)cc32)nc1C(F)(F)F (stereo not shown) [Compound I-394] | – | < 10 |
| O=C(NC1(C(=O)O)C2CC3CC(C2)CC1C3)c1cnc(-c2cn(C3CCC(F)(F)CC3)c3cc(OC4CCN(CC(F)(F)C(F)(F)F)CC4)ccc23)nc1C(F)(F)F (stereo not shown) [Compound I-408] | – | < 10 |
| O=C(NC1(C(=O)O)C2CC3CC(C2)CC1C3)c1cnc(-c2cn(C3CCC(F)(F)CC3)c3cc(OC4CCN(c5cc(F)ccn5)CC4)ccc23)nc1C(F)(F)F (stereo not shown) [Compound I-411] | – | < 10 |
| CC1CC(Oc2ccc3c(-c4ncc(C(=O)NC5(C(=O)O)C6CC7CC(C6)CC5C7)c(C(F)(F)F)n4)cn(C4CCC(F)(F)CC4)c3c2)CCN1CC(F)(F)F (stereo not shown) [Compound I-414] | – | < 10 |
| O=C(NC1(C(=O)O)C2CC3CC(C2)CC1C3)c1cnc(-c2cn(C3CCC(F)(F)CC3)c3cc(C(=O)N4CCC(N5CC(F)(F)C5)CC4)ccc23)nc1C(F)(F)F (stereo not shown) [Compound I-416] | – | < 10 |
| O=C(NC1(C(=O)O)C2CC3CC(C2)CC1C3)c1cnc(-c2cn(C3CCC(F)(F)CC3)c3cc(OC4CCC(F)(F)CC4)ccc23)nc1C(F)(F)F (stereo not shown) [Compound I-419] | – | < 10 |
| O=C(NC1(C(=O)O)C2CC3CC(C2)CC1C3)c1cnc(N2CC3(CCOCC3)c3cc(Nc4ncccn4)ccc32)nc1C(F)(F)F (stereo not shown) [Compound I-435] | – | < 10 |
